Experimental data reported in paper PMC5824344 (ACS Chemical Biology, 2017).

Tests used:
Type in all cases: biochemical
[1] = target: T1, Rat liver ER α-glucosidase I (Rattus norvegicus, UniProt O88941); assay: Inhibition of isolated rat liver ER α-glucosidase I (anthranilic acid-labelled Glc3Man7GlcNAc2 substrate, HPLC); settings: for IC50: isolated enzyme in vitro, mean of three measurements
T1 construct: Rat liver ER, I; from tissue; host or cells: liver of male Wistar rats
T1 sequence (O88941 1-834): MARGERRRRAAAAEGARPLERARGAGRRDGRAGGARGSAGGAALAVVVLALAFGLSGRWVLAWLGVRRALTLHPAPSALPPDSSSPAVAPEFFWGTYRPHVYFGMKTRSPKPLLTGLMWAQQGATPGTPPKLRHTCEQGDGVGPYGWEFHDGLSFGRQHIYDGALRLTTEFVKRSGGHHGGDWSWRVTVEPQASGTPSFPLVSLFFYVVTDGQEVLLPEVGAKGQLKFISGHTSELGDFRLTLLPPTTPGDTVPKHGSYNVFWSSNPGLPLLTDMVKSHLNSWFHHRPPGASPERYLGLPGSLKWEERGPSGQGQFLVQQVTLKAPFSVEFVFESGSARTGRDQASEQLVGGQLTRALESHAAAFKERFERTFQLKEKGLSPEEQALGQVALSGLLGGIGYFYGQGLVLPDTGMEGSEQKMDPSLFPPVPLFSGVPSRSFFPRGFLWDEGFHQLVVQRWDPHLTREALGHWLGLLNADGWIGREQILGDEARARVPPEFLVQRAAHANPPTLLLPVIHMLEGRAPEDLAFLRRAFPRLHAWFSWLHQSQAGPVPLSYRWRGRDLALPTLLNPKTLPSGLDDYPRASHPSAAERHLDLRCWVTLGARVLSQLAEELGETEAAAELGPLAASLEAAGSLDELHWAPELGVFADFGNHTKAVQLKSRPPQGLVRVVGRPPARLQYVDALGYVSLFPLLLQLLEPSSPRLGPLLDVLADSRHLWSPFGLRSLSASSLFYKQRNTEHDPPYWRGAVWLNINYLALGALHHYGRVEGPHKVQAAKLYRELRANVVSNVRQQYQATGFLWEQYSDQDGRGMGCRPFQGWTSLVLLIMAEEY
Procedure: (§1) 4 Enzyme Inhibition Assays
(§2) All rat enzymes were isolated from 18-week-old, male Wistar rats, while human lysosomal α-glucosidase was obtained in commercially available form from Sanoﬁ Genzyme. Inhibition of isolated glucosidases was evaluated as described previously. 3 Brieﬂy, maltase, isomaltase, sucrase, and cellobiase were used as partially puriﬁed tissue extracts. Inhibition assays for each enzyme were performed with the respective natural substrate, and release of d-glucose measured by Glucose B-test (Wako Diagnostics). Assays of rat ER α-glucosidase II and human lysosomal α-glucosidase inhibition were conducted with α-p-nitrophenylglucoside as substrate; 400 mm Na2CO3 was added to quench these reactions, and the extent of hydrolysis was evaluated as absorbance at 400 nm by spectrophotometer.
(§3) ER α-glucosidase I inhibition assays were performed using anthranilic acid-labelled Glc3Man7GlcNAc2 as substrate. After terminating the reaction with acetonitrile, protein was removed by cen-trifugation through a 10 kDa molecular weight cut oﬀ ﬁlter. The amount of hydrolysis was then quantiﬁed by normal phase high performance liquid chromatography analysis of unreacted substrate and product (Glc2Man7GlcNAc2).4
(§4) ER α-glucosidase II inhibition assays using native-like substrates were performed using an-thranilic acid-labelled Glc2Man7GlcNAc2 as substrate. After terminating the reaction with acetonitrile, protein was removed by centrifugation through a 10 kDa molecular weight cut oﬀ ﬁlter. The amount of hydrolysis was then quantiﬁed by normal phase high performance liq-uid chromatography analysis of unreacted substrate and both products (Glc1Man7GlcNAc2

[2] = target: T2, Rat liver ER α-glucosidase II (Rattus norvegicus, UniProt A0A8I6GFL3); assay: Inhibition of isolated rat liver ER α-glucosidase II (α-p-nitrophenylglucoside substrate); settings: isolated enzyme in vitro; read-out: IC50 with regard to GluII
T2 construct: Rat liver ER, II; from tissue; host or cells: liver of male Wistar rats
T2 sequence (A0A8I6GFL3 33-944): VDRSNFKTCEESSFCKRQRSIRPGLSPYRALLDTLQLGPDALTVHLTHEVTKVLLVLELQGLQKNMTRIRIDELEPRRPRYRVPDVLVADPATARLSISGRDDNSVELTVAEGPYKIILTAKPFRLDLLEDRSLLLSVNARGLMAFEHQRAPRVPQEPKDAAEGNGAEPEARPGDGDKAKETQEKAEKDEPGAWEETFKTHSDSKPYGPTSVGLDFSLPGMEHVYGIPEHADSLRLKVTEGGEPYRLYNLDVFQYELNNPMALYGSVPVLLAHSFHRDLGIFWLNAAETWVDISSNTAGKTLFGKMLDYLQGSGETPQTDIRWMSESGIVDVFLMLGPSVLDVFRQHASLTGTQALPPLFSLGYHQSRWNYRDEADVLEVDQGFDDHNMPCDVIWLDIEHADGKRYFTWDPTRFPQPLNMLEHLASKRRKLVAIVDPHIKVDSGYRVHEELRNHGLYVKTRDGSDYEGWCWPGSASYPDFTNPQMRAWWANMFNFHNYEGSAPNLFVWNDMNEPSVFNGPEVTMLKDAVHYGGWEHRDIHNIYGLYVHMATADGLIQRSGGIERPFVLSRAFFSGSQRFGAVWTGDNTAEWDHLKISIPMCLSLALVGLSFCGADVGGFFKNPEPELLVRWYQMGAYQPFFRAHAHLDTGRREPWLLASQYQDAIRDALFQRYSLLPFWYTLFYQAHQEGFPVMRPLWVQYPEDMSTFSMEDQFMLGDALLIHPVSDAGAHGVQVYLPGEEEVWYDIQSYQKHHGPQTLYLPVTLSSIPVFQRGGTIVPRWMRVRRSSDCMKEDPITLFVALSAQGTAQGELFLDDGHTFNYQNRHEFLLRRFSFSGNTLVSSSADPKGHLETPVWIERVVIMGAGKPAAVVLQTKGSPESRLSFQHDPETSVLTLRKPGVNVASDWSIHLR
T2 sequence (A0A8I6ADW9 1-525 partner): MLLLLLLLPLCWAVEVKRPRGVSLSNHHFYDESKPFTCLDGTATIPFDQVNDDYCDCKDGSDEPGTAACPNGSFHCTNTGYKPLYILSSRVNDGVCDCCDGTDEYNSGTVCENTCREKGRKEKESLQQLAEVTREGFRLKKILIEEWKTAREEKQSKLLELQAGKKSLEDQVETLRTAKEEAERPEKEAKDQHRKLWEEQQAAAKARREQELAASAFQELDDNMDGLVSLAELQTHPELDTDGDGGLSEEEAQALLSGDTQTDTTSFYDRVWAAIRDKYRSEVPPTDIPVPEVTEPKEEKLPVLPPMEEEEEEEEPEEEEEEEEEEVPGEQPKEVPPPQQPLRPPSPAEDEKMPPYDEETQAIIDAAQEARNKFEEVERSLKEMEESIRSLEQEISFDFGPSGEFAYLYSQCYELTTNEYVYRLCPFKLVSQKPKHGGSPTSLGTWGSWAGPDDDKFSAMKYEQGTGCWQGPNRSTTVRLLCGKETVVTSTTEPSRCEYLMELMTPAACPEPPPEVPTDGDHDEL
Procedure: as §1, §2, §3, §4

[3] = target: T3, Rat intestinal isomaltase (Rattus norvegicus, UniProt P23739); assay: Inhibition of rat intestinal isomaltase (natural substrate, glucose release); settings: for IC50: isolated enzyme in vitro, mean of three measurements, read-out: IC50, α-Glucosidase, Rat intestinal isomaltase
T3 construct: from tissue; host or cells: intestine of male Wistar rats, partially purified extract
T3 sequence (P23739 whole entry): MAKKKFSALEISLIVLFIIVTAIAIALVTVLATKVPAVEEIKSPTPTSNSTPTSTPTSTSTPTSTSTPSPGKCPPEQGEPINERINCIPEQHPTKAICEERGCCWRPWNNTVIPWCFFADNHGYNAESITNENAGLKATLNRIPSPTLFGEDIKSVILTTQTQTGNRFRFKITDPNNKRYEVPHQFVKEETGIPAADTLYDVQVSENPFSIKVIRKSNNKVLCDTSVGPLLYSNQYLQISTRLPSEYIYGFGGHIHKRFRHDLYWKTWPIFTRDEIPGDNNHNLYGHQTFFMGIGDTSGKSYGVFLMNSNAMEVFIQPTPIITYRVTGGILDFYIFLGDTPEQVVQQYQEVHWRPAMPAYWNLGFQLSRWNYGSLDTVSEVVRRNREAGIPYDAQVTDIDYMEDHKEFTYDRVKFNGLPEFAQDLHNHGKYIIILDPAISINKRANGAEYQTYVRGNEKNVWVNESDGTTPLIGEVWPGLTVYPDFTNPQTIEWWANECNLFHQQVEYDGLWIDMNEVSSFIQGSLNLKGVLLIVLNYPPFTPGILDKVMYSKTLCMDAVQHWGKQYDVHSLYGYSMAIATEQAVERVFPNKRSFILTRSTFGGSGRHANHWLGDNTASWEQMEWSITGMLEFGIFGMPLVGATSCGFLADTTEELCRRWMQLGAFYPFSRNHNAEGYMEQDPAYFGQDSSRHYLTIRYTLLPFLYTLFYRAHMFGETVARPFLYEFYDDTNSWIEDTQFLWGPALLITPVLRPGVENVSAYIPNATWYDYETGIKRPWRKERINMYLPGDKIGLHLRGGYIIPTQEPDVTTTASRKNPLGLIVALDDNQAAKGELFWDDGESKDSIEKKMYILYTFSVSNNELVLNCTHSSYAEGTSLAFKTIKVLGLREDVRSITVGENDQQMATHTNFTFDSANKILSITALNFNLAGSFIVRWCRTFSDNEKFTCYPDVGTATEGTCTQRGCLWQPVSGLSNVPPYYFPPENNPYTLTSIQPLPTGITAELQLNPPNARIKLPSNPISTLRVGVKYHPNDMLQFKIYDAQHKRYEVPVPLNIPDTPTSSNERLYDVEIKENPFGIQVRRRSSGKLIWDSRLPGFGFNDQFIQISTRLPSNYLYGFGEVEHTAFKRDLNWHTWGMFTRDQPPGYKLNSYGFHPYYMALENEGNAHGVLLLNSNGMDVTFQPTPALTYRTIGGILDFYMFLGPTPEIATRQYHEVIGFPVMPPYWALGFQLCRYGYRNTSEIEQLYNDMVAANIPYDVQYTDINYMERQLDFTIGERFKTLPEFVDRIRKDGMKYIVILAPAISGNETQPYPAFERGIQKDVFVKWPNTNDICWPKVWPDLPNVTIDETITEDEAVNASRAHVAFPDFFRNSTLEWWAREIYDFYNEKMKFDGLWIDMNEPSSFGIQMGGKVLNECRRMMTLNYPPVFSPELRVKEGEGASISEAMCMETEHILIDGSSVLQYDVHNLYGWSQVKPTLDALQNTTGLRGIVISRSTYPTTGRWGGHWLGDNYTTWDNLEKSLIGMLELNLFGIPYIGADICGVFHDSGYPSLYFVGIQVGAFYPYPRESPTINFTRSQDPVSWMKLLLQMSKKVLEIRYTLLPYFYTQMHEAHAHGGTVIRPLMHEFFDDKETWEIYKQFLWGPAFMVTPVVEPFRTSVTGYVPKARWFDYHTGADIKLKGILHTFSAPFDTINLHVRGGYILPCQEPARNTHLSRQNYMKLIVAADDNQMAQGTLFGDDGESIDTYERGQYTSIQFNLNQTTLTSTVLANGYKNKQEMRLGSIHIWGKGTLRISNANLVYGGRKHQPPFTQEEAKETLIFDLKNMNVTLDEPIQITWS
Procedure: as §1, §2, §3, §4

Compound | IC50 [1] [µM] | IC50 [2] [µM] | IC50 [3] [µM] | inhibition at 50 µM ([1]; 50 μM, read-out: inhibition of GluI at the maximum tested concentration) [%] | inhibition at 50 µM ([3]; 50 μM, read-out: inhibition of intestinal isomaltase at the maximum tested concentration) [%]
CCCCN1CC(O)C(O)C(O)C1CO [Compound 2, N-butyl-D-1-deoxynojirimycin, reference compound] | 0.68 | 13 | 1.6 | – | –
Cc1c(C)c2c(c(C)c1OCCCCCN1CC(O)C(O)C(O)C1CO)CCC(C)(CCCC(C)CCCC(C)CCCC(C)C)O2 (centres unmarked) [Compound 4, 5′-tocopheroxypentyl-DNJ] | > 50 | 9 | > 50 | < 50 | < 50
